Results published in PubChem BioAssay (NCI).
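96-well plates; 48 h exposure; 5 concentrations. Endpoints by linear interpolation between flanking doses. Not reached: highest tested concentration assigned. GI50: concentration for 50% inhibition of growth. TGI denotes the concentration required for complete inhibition of growth.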

Columns and labels:
Assay in all cases: NCI tumour cell line growth inhibition, 48 h
[1] = test system: SNB-75 CNS
[2] = test system: KM12 colon
[3] = test system: TK-10 renal
[4] = test system: HOP-92 NSCLC
[5] = test system: RXF 393 renal
[6] = test system: MALME-3M melanoma
[7] = test system: SF-539 CNS
[8] = test system: A498 renal
[9] = test system: PC-3 prostate
[10] = test system: HCC-2998 colon
[11] = test system: BT-549 breast
[12] = test system: SF-268 CNS
[13] = test system: NCI-H23 lung
[14] = test system: LOX IMVI melanoma
[15] = test system: DU-145 prostate
[16] = test system: CCRF-CEM leukemia
[17] = test system: UO-31 renal
[18] = test system: MDA-MB-435
[19] = test system: MDA-MB-231 breast
[20] = test system: EKVX NSCLC
[21] = test system: OVCAR-5 ovarian
[22] = test system: OVCAR-3 ovarian
[23] = test system: UACC-62 melanoma
[24] = test system: OVCAR-4 ovarian
[25] = test system: ACHN renal
[26] = test system: SR leukemia
[27] = test system: SK-MEL-28 melanoma
[28] = test system: SK-MEL-5 melanoma
[29] = test system: MCF7 breast
[30] = test system: SN12C renal
[31] = test system: NCI-H460 lung
[32] = test system: HCT-15 colon
[33] = test system: SF-295 CNS
[34] = test system: SNB-19 CNS
[35] = test system: CAKI-1 renal
[36] = test system: SK-MEL-2 melanoma
[37] = test system: SW-620 colon
[38] = test system: IGROV1 ovarian
[39] = test system: HCT-116 colon
[40] = test system: OVCAR-8 ovarian
[41] = test system: HOP-62 NSCLC
[42] = test system: HL-60(TB) leukemia
[43] = test system: A549 NSCLC
[44] = test system: NCI-H226 lung
[45] = test system: SK-OV-3 ovarian
[46] = test system: U251 CNS
[47] = test system: M14 melanoma
[48] = test system: COLO 205 colon
[49] = test system: T-47D breast
[50] = test system: MOLT-4 leukemia
[51] = test system: NCI/ADR-RES ovarian
[52] = test system: HT29 colon
[53] = test system: 786-0 renal
[54] = test system: K-562 leukemia
[55] = test system: UACC-257 melanoma
[56] = test system: RPMI-8226 leukemia

Molecule `CN1CCN(CCCOc2ccc3ncnc(Nc4ccc(OCc5cccc(F)c5)c(Cl)c4)c3c2)CC1` has a GI50 [1] of 1380 nM, a TGI [1] of 2710 nM and a GI50 [2] of 1730 nM. The TGI [2] was 3210 nM, the GI50 [3] was 577 nM and the TGI [3] was 2320 nM. For the same molecule, the GI50 [4] was 1150 nM, the TGI [4] was 2540 nM and the GI50 [5] was 1580 nM. The TGI [5] was 3070 nM, the GI50 [6] was 1650 nM and the TGI [6] was 3230 nM. The GI50 [7] was 1670 nM, the TGI [7] was 3090 nM and the GI50 [8] was 1130 nM. For the same molecule, the TGI [8] was 2420 nM, the GI50 [9] was 1740 nM and the TGI [9] was 3390 nM. For the same molecule, the GI50 [10] was 1700 nM, the TGI [10] was 3170 nM and the GI50 [11] was 1580 nM. The TGI [11] was 3000 nM, the GI50 [12] was 1490 nM and the TGI [12] was 3150 nM. The GI50 [13] was 1690 nM, the TGI [13] was 3200 nM and the GI50 [14] was 1750 nM. For the same molecule, the TGI [14] was 3230 nM, the GI50 [15] was 1100 nM and the TGI [15] was 2350 nM. The GI50 [16] was 1570 nM, the TGI [16] was 3530 nM and the GI50 [17] was 1180 nM. For the same molecule, the TGI [17] was 2490 nM, the GI50 [18] was 1610 nM and the TGI [18] was 3110 nM. The GI50 [19] was 1620 nM, the TGI [19] was 3100 nM and the GI50 [20] was 1140 nM. The TGI [20] was 2470 nM, the GI50 [21] was 1600 nM and the TGI [21] was 3050 nM. The GI50 [22] was 1480 nM, the TGI [22] was 2920 nM and the GI50 [23] was 1700 nM. For the same molecule, the TGI [23] was 3240 nM, the GI50 [24] was 1570 nM and the TGI [24] was 3350 nM. For the same molecule, the GI50 [25] was 639 nM, the TGI [25] was 1950 nM and the GI50 [26] was 379 nM. For the same molecule, the TGI [26] was 1790 nM, the GI50 [27] was 1720 nM and the TGI [27] was 3190 nM. The GI50 [28] was 1670 nM, the TGI [28] was 3040 nM and the GI50 [29] was 1500 nM. For the same molecule, the TGI [29] was 2960 nM, the GI50 [30] was 1630 nM and the TGI [30] was 3100 nM. It also gave a GI50 [31] of 1780 nM, a TGI [31] of 3380 nM and a GI50 [32] of 1060 nM. It also gave a TGI [32] of 2350 nM, a GI50 [33] of 1770 nM and a TGI [33] of 3190 nM. For the same molecule, the GI50 [34] was 1500 nM, the TGI [34] was 2870 nM and the GI50 [35] was 1130 nM. For the same molecule, the TGI [35] was 2340 nM, the GI50 [36] was 2070 nM and the TGI [36] was 4040 nM. It also gave a GI50 [37] of 1730 nM, a TGI [37] of 3280 nM and a GI50 [38] of 1020 nM. For the same molecule, the TGI [38] was 2550 nM.

`COc1ccc2c(c1)c(-c1nonc1-c1cn(C)c3ccccc13)cn2C` showed a GI50 [39] of 441 nM, a TGI [39] of over 100000 nM and a GI50 [1] of 198 nM. The TGI [1] was 671 nM, the GI50 [2] was 414 nM and the TGI [2] was over 100000 nM. It also gave a GI50 [40] of 570 nM, a TGI [40] of over 100000 nM and a GI50 [3] of 2260 nM. It also gave a TGI [3] of over 100000 nM, a GI50 [4] of 890 nM and a TGI [4] of over 100000 nM. It also gave a GI50 [5] of 270 nM, a TGI [5] of 1030 nM and a GI50 [6] of 675 nM. For the same molecule, the TGI [6] was over 100000 nM, the GI50 [7] was 312 nM and the TGI [7] was 1530 nM. It also gave a GI50 [41] of 670 nM, a TGI [41] of over 100000 nM and a GI50 [42] of 340 nM. It also gave a GI50 [8] of 332 nM, a TGI [8] of 988 nM and a GI50 [43] of 629 nM. The TGI [43] was over 100000 nM, the GI50 [44] was 998 nM and the TGI [44] was over 100000 nM. It also gave a GI50 [9] of 481 nM, a TGI [9] of over 100000 nM and a GI50 [10] of 1110 nM. The TGI [10] was over 100000 nM, the GI50 [11] was 798 nM and the TGI [11] was over 100000 nM. For the same molecule, the GI50 [12] was 1290 nM, the TGI [12] was over 100000 nM and the GI50 [45] was 536 nM. It also gave a TGI [45] of over 100000 nM, a GI50 [46] of 440 nM and a TGI [46] of over 100000 nM. It also gave a GI50 [47] of 373 nM, a TGI [47] of over 100000 nM and a GI50 [13] of 996 nM. It also gave a TGI [13] of over 100000 nM, a GI50 [48] of 479 nM and a TGI [48] of over 100000 nM. It also gave a GI50 [14] of 588 nM, a TGI [14] of over 100000 nM and a GI50 [49] of 542 nM. It also gave a TGI [49] of over 100000 nM, a GI50 [15] of 528 nM and a TGI [15] of over 100000 nM. For the same molecule, the GI50 [50] was 668 nM, the TGI [50] was over 100000 nM and the GI50 [16] was 374 nM. The TGI [16] was over 100000 nM, the GI50 [17] was 430 nM and the TGI [17] was over 100000 nM. It also gave a GI50 [51] of 408 nM, a TGI [51] of over 100000 nM and a GI50 [18] of 169 nM. The TGI [18] was 554 nM, the GI50 [52] was 357 nM and the TGI [52] was over 100000 nM. It also gave a GI50 [53] of 628 nM, a TGI [53] of over 100000 nM and a GI50 [19] of 877 nM. The TGI [19] was over 100000 nM, the GI50 [20] was 1110 nM and the TGI [20] was over 100000 nM. The GI50 [21] was 1250 nM, the TGI [21] was over 100000 nM and the GI50 [22] was 336 nM. It also gave a TGI [22] of 8750 nM, a GI50 [23] of 493 nM and a TGI [23] of over 100000 nM. It also gave a GI50 [24] of 1680 nM, a TGI [24] of over 100000 nM and a GI50 [25] of 621 nM. For the same molecule, the TGI [25] was over 100000 nM, the GI50 [26] was 313 nM and the TGI [26] was over 100000 nM. For the same molecule, the GI50 [54] was 300 nM, the TGI [54] was over 100000 nM and the GI50 [29] was 364 nM. The TGI [29] was over 100000 nM, the GI50 [30] was 697 nM and the TGI [30] was over 100000 nM. For the same molecule, the GI50 [31] was 403 nM, the TGI [31] was over 100000 nM and the GI50 [32] was 456 nM. The TGI [32] was over 100000 nM, the GI50 [33] was 343 nM and the TGI [33] was over 100000 nM. It also gave a GI50 [55] of 463 nM, a TGI [55] of over 100000 nM and a GI50 [34] of 556 nM. For the same molecule, the TGI [34] was over 100000 nM, the GI50 [35] was 382 nM and the TGI [35] was over 100000 nM. The GI50 [56] was 634 nM, the TGI [56] was over 100000 nM and the GI50 [36] was 554 nM. It also gave a TGI [36] of over 100000 nM, a GI50 [37] of 367 nM and a TGI [37] of over 100000 nM. For the same molecule, the GI50 [38] was 577 nM and the TGI [38] was over 100000 nM.
